Assay results from paper PMC4976923, “Potent Allosteric Dengue Virus NS5 Polymerase Inhibitors: Mechanism of Action and Resistance Profiling” (PLoS Pathogens, 2016).

Assays:
DENV2 FL NS5 WT = molecular target: T1, DENV2 FL NS5 WT (Dengue virus type 2, UniProt P14340); assay type: binding; details: 50 µM compound; for Protein melting temperature, Tm, DENV2 FL NS5 WT: DMSO 35.5
T1 construct: compared against activities of WT DENV2 or DENV4 FL NS5 proteins; made in house

DENV1 FL NS5 = molecular target: T2, DENV1 FL NS5 (Dengue virus type 1, UniProt P17763); assay: DENV1 FL NS5 de novo initiation FAPA assay; assay type: biochemical; details: one experiment; read-out: DENV FL NS5 de novo initiation FAPA, IC50, DENV1
T2 construct: 100 nM DENV FL NS5 protein was added; made in house
T2 sequence (P17763 2494-3392): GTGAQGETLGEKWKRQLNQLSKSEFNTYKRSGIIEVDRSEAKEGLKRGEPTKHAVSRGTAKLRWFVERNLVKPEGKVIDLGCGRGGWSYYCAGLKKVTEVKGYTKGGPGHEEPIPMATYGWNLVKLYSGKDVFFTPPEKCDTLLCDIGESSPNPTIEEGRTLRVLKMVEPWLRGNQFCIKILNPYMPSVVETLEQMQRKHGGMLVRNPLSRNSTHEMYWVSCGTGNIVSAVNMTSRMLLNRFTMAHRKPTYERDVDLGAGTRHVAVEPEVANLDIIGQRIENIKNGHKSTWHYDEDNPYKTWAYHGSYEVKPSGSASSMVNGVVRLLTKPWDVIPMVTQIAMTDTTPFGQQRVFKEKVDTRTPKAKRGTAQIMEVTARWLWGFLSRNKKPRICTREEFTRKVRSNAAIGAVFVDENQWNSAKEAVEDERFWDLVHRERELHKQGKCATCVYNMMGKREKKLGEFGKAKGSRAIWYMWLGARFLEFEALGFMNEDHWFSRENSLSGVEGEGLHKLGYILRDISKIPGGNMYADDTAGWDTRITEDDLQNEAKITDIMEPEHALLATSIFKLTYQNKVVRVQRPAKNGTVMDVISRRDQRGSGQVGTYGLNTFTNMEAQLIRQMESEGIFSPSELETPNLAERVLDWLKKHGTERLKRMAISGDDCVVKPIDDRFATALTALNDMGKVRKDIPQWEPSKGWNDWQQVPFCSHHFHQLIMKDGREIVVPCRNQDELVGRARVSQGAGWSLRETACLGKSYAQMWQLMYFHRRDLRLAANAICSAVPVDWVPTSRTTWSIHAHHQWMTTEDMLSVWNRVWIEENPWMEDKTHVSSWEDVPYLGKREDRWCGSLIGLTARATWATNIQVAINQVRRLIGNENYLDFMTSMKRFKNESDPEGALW
Description: DENV1-4 FL NS5 dnI assays were performed as described previously. Briefly, compounds from 0–20 or -100 μM concentrations are two-fold serially diluted into 384-well black opaque plates (Corning Costar), after which 100 nM DENV FL NS5 protein was added and the plates incubated at RT for 20 min. RNA and ATTO-CTP, ATP, GTP and UTP were then added and the plates incubated for another 120 min. Reactions were stopped with buffer containing 25 nM CIP, re- incubated at RT for 60 min and read on a Tecan Safire II microplate reader. For order-of-addition experiments, DENV4 FL NS5 was incubated for one hour at RT with RNA, ATP, and GTP or RNA, ATP, GTP and ATTO-CTP, followed by exposure to serially diluted compounds for 20 min at RT. The missing components (ATTO-CTP and UTP or UTP alone) were added and the reactions continued for 120 min after which STOP buffer was added as before. All datapoints were performed in duplicate wells. Each compound was tested at least twice.
2 Co mpound testing with DENV dn I FAPA assays. Final dn I assa y reaction mixtures
3 contained 100 nM DENV 5 ´UTR-L-3´UTR IVT RNA, 20 µ M ATP, 20 µM GTP, 20 µM
4 UTP, 5 µM ATTO -CTP, and 100 nM of DENV FL NS5 protein in 15 µl in assa y buffer
5 comprising 50 mM Tris/ HCl, pH 7.5, 10 mM KCl, 1 mM MgCl2, 0.3 mM MnCl2 (DENV2
6 and 4) or 1 mM MnCl 2 (DENV1 and 3), 0.001% Triton- X-100 and 10 µ M cystein e [ 1] . To
7 perform dose-respons e inhibition measurements, compounds from 0- 20 or - 100 µM
8 concentr ations are two -fold seriall y diluted into 384-well black opaqu e plat es (Corning
9 Costar), after which 100 nM DENV FL NS5 protein was added into resp ect ive wells. The
10 plates wer e sealed, b riefl y shak en and centrif uged at 1500 rpm for 30 sec and incubated at RT
11 for 15 min. Thereafter,RNA and ATTO -CTP, ATP, GTP and UTP were added to the wells to
12 start the reactions. The pl ates wer e re-seal ed, shaken and centrifuged as before, followed b y
13 incubation RT for 120 min. Reactions were stopped by addition of 10 µl of 2.5X STOP
14 buffer (200 mM NaCl, 25 mM MgCl2, 1.5M DEA, pH 10; Promega) with 25 nM calf
15 intestinal phosphatase (CIP), re- incubation at RT for 60 min and read on a Tecan Safire II
16 microplate reader. For o r der-of-addition experiments, DENV4 FL NS5 was incubated for one
17 hour at RT with RNA, ATP, and GTP or RNA, ATP, GTP and ATTO-CTP, followed by
18 exposure to seriall y dilut ed compounds for 20 mi n at RT. The missing components (ATTO-
19 CTP and UTP or UTP alone) were added and the reactions continued for 120 min after which
20 STOP buffer was added as before. All datapoints were performed in duplicate wells. Each
21 compound was tested at l east twice.
23 Compound testing in DENV1-4 infected cells by high content imaging. Approximatel y 7
24 × 10^3 A549 cells per well were s eeded into 384-well plates in Ham’s F-12K medium

[1] = test system: DENV2-NGC replicon L512V/E802D; assay type: cell-based; details: electroporated BHK-21; 2 days
[2] = test system: DENV2-NGC EGFP Replicon in BHK21; assay: Stable BHK21 DENV2-NGC EGFP replicon assay; assay type: cell-based; details: Dengue virus, DENV2, BHK-21; 48 hr
[3] = molecular target: T3, FL NS5 from BHK-21 DENV2-NGC replicon cell lysate (Dengue virus type 2, UniProt P14340); assay: Cellular thermal shift assay with replicon cell lysate; assay type: binding; details: +50 μM compound; DMSO control 42.5
T3 construct: FL NS5 from DENV-replicon lysates; expressed in transfected cells; host or cells: BHK-21 cells carrying a DENV2 (New Guinea C) sub-genomic replicon
From the text: 1 Fig. 4.Ph ylo genetic tr ee repres enting relatedn ess of N-pocket amino acid residues from
2 different members of the Flavivirus famil y, derived from Clustal Omega program [ 8] .
(§1) 6 Fi g .5. Ef fects of N -pocket compounds on DENV pol ymerase thermo-stability. Melting
(§2) 7 temperatur e (Tm) w as ass essed b y thermo-d enatur ation in presence of the S YPRO Oran ge
(§3) 8 dye as described in Materials and Methods. (A-F) Representative meltin g curves of DEN V4
10 inhibitors or 5 % DMSO control. (G) Cellular thermal shifts assays [ 9] wer e perfo rmed with
Bri efl y, l ysates w er e
12 incubated with compounds or 5 % DMSO for 1 hr at 4 °C, followed b y heating at 30- 70 °C.
13 Samples were spun and the supernat ants loaded onto 12 % SDS -PAGE gel s , followed b y gel
14 electrophoresis and west ern blotting with anti- DE NV2 NS5 antibody (GeneTex, USA). Table
(§4) 16 controls treated with DMSO.
(1 picture or pasted object on this page, not shown here)

DENV4 FL NS5 Q802N = molecular target: T4, DENV4 FL NS5 Q802N (Dengue virus type 4, UniProt P09866, Q3290N); assay type: binding; details: 50 µM compound; for Protein melting temperature, Tm, DENV4 FL NS5 Q802N: DMSO 37
T4 construct: made in house
T4 sequence (P09866 2488-3387 Q3290N): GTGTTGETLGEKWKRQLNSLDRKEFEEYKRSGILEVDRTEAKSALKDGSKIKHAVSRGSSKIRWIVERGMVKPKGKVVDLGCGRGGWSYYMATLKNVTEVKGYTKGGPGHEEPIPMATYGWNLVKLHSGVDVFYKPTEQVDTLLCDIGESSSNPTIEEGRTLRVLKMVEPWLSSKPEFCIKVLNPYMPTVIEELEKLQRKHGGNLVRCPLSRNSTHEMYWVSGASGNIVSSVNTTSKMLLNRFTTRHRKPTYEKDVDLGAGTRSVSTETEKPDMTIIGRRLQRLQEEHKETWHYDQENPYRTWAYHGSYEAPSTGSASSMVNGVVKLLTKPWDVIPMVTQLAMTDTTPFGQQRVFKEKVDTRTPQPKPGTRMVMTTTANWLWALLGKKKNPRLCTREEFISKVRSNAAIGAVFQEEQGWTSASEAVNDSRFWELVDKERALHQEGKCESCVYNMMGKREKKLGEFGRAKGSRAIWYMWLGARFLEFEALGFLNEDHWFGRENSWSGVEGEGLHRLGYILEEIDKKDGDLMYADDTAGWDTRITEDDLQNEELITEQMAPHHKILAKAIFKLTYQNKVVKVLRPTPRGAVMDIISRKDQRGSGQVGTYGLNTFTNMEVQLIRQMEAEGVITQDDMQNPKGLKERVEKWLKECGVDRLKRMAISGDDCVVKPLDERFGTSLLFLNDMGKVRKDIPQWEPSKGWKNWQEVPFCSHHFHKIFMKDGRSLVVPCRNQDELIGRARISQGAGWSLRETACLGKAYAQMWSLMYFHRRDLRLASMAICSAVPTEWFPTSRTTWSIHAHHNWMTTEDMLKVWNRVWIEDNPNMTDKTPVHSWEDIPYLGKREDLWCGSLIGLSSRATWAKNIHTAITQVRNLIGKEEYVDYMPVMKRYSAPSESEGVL

[4] = test system: Human rhinovirus (7 serotypes); assay: Human rhinovirus cytopathic inhibition in HeLa cells; assay type: cell-based; details: Rhinovirus A, 120 h, cytopathic inhibition over 5 days
DENV4 FL NS5 = assay: Thermo-denaturation assay, recombinant FL NS5; assay type: binding; details: for Tm change compared to DMSO control, DENV4 FL NS5 WT: 50 µM compound (Fig 7 in S1 Text); for Protein melting temperature, Tm, DENV4 FL NS5 WT: 50 µM compound, DMSO 37.5 (Fig 7 in S1 Text); for Protein melting temperature Tm with compound, FL NS5: +50 μM compound, DMSO control 42.5
Description: Site-directed alanine mutations of DENV4 FL NS5 cDNA were performed using pET28-D4-MY01-22713 NS5FL [23] as a template, according to the manufacturer’s protocol (Stratagene, USA). Protein expressions of DENV1-4 FL NS5 and their stability analyses by thermo-fluorescence were performed as described previously. DENV de novo initiation and elongation FAPA assays were earlier described. […]
as §1, §2, §3
10 inhibitors or 5 % DMSO control. […]
as §4

[5] = test system: WNV (New York strain 3356) replicon; assay: WNV replicon cell-based assay; details: 0–50 μM, 2 days
Description: 4 Compound testing in cells transiently expressing DENV and WNV replicon. R enilla
5 luciferas e sub-genomic replicon of DENV2 (strai n New Guinea C) or WN V (New York
6 strain 3356) cloned into the pACYC plasmid, was in vitro transcribed using a T7 mMessage
7 mMachine kit (Ambion, Austin, TX) after linearization with ClaI, as descri bed previousl y
8 [5]. A549 cells were electroporated with 10 μg of replicon RNA using a GenePulser Xcell
9 system (Bio-Rad, H ercul es, CA) with 3 pulses, at 450 V, 25 µF, at 5- 10 sec intervals.
10 Transfected cells wer e seeded into a 96-w ell plate at 1.5 × 10^4 cells per well, followed b y
11 treatment with the compound or the dimethyl sulfoxide (DMSO) control and incubation at
12 37°C in 5 % CO2. At various time points post-transfection, cells were w ash ed once with
13 phosphate-buffered saline (PBS) and l ysed in 20 μl 1× l ysis buffer (Promega, USA) and
14 assa yed fo r luciferase si gnals with a Clarit y luminescence microplate reader (BioT ek, USA)
15 using the renilla luciferase assa y s ystem (Promega, USA). CellTiter -Glo reagent was added to
16 the l ysates to determine t he c ytotoxicit y effects of compounds.Duplicate w ells were seeded
WNV ( New York strain 3356) replicon cDNA was electropo rated in BHK -21 cells, […]
4 from replicon cells were determined b y measuring cellular renilla luciferase levels. […]
5 points were measured in duplicates.

SMILES: COc1cc(OC)c(-c2ccc(C#CCO)s2)cc1C(=O)NS(=O)(=O)c1cccc2cccnc12 [Compound 29]
- Tm change compared to DMSO control, DENV2 FL NS5 WT (DENV2 FL NS5 WT): 4.5 °C
- Protein melting temperature, Tm, DENV2 FL NS5 WT (DENV2 FL NS5 WT): 40 °C
- IC50 (DENV1 FL NS5): 0.013 µM
- EC50 [1]: 38.8 µM
- EC50 [2]: 5.8 µM
- Protein melting temperature Tm with compound, FL NS5 from BHK-21 DENV2-NGC replicon cell lysate [3]: 50 °C
- Tm change compared to DMSO control, DENV4 FL NS5 Q802N (DENV4 FL NS5 Q802N): 1.5 °C
- Protein melting temperature, Tm, DENV4 FL NS5 Q802N (DENV4 FL NS5 Q802N): 38.5 °C
- EC50 [4]: > 50 µM
- Tm change compared to DMSO control, DENV4 FL NS5 WT (DENV4 FL NS5): 3 °C
- Protein melting temperature, Tm, DENV4 FL NS5 WT (DENV4 FL NS5): 40.5 °C
- Protein melting temperature Tm with compound, FL NS5 (DENV4 FL NS5): 51.5 °C
- activity in WNV replicon cell-based assay [5]: inactive

SMILES: COc1cccc(S(=O)(=O)NC(=O)c2cc(-c3ccc(C#CCO)s3)c(OC)cc2C)c1 [Compound 26i]
- IC50 (DENV1 FL NS5): 0.024 µM

SMILES: COc1cccc(S(=O)(=O)NC(=O)c2cc(-c3ccc(C#CCO)s3)c(OC)cc2OC)c1 [Compound 27]
- Tm change compared to DMSO control, DENV2 FL NS5 WT (DENV2 FL NS5 WT): 1.5 °C
- Protein melting temperature, Tm, DENV2 FL NS5 WT (DENV2 FL NS5 WT): 37 °C
- EC50 [1]: 28.4 µM
- EC50 [2]: 3.5 µM
- Protein melting temperature Tm with compound, FL NS5 from BHK-21 DENV2-NGC replicon cell lysate [3]: 47.5 °C
- Tm change compared to DMSO control, DENV4 FL NS5 Q802N (DENV4 FL NS5 Q802N): 0.5 °C
- Protein melting temperature, Tm, DENV4 FL NS5 Q802N (DENV4 FL NS5 Q802N): 37.5 °C
- EC50 [4]: > 50 µM
- Tm change compared to DMSO control, DENV4 FL NS5 WT (DENV4 FL NS5): 1 °C
- Protein melting temperature, Tm, DENV4 FL NS5 WT (DENV4 FL NS5): 38.5 °C
- Protein melting temperature Tm with compound, FL NS5 (DENV4 FL NS5): 46.5 °C
- activity in WNV replicon cell-based assay [5]: inactive
